Measured values taken from ChEMBL document CHEMBL4715829, “Heterodimeric Rifampicin-Tobramycin conjugates break intrinsic resistance of Pseudomonas aeruginosa to doxycycline and chloramphenicol in vitro and in a Galleria mellonella in vivo model” (Eur J Med Chem, 2019).
Calls of active or inactive are those of the source. The calls are words filed in the database; no cut-off is given here.

Assays:
[1] = system: Pseudomonas aeruginosa; assay: Antibacterial activity against Pseudomonas aeruginosa 91433 assessed as fractional inhibitory concentration incubated for 18 hrs in presence of rifampicin by broth microdilution assay; assay type: functional
[2] = system: Pseudomonas aeruginosa; assay: Antibacterial activity against Pseudomonas aeruginosa 259-96918 assessed as fractional inhibitory concentration incubated for 18 hrs in presence of tigecycline by broth microdilution assay; assay type: functional
[3] = system: Pseudomonas aeruginosa; assay: Antibacterial activity against Pseudomonas aeruginosa 260-97103 infected in Galleria mellonella larvae assessed as survival of larvae at 100 mg/kg treated at 3 hrs post-infection in presence of chloramphenicol and measured after 24 hrs relative to control; assay type: functional
[4] = system: Pseudomonas aeruginosa; assay: Antibacterial activity against Pseudomonas aeruginosa 101885 assessed as potentiation of chloramphenicol-induced antibacterial activity by measuring chloramphenicol MIC at 9.8 uM incubated for 18 hrs in presence of chloramphenicol by broth microdilution assay (reference value: 512 ug/ml); assay type: functional
[5] = system: Pseudomonas aeruginosa; assay: Antibacterial activity against Pseudomonas aeruginosa 114228 assessed as fractional inhibitory concentration incubated for 18 hrs in presence of minocycline by broth microdilution assay; assay type: functional
[6] = system: Pseudomonas aeruginosa; assay: Antibacterial activity against Pseudomonas aeruginosa 260-97103 assessed as potentiation of chloramphenicol-induced antibacterial activity by measuring chloramphenicol MIC at 9.8 uM incubated for 18 hrs in presence of chloramphenicol by broth microdilution assay (reference value: 128 ug/ml); assay type: functional
[7] = system: Pseudomonas aeruginosa; assay: Antibacterial activity against Pseudomonas aeruginosa 114228 assessed as fractional inhibitory concentration index incubated for 18 hrs in presence of rifampicin by broth microdilution assay; assay type: functional
[8] = system: Pseudomonas aeruginosa; assay: Antibacterial activity against Pseudomonas aeruginosa 259-96918 assessed as potentiation of doxycycline-induced antibacterial activity by measuring doxycycline MIC at 9.8 uM incubated for 18 hrs in presence of doxycycline by broth microdilution assay (reference value: 32 ug/ml); assay type: functional
[9] = system: Pseudomonas aeruginosa; assay: Antibacterial activity against Pseudomonas aeruginosa 101885 assessed as fractional inhibitory concentration index incubated for 18 hrs in presence of minocycline by broth microdilution assay; assay type: functional
[10] = system: Pseudomonas aeruginosa; assay: Potentiation of doxycycline-induced antibacterial activity against Pseudomonas aeruginosa PAO200 harboring mexA-mexB-oprM deletion mutant assessed as fold change in doxycycline MIC at <=9.8 uM incubated for 18 hrs in presence of doxycycline by broth microdilution assay; assay type: functional; conditions: dose microM <=9.8
[11] = system: Pseudomonas aeruginosa; assay: Antibacterial activity against Pseudomonas aeruginosa 259-96918 assessed as fractional inhibitory concentration index incubated for 18 hrs in presence of minocycline by broth microdilution assay; assay type: functional
[12] = system: Pseudomonas aeruginosa; assay: Potentiation of chloramphenicol-induced bactericidal activity against Pseudomonas aeruginosa PAO1 assessed as reduction in bacterial colonies at 4.9 to 9.8 microM incubated for upto 24 hrs in LB medium in presence of chloramphenicol followed by plating on agar plate and measured after 20 hrs by time-kill assay; assay type: functional, organism-based; conditions: dose 4.9-9.8 µM, time hrs <=44
[13] = system: Pseudomonas aeruginosa; assay: Potentiation of doxycycline-induced antibacterial activity against wild type Pseudomonas aeruginosa PAO1 assessed as fold change in doxycycline MIC at <=9.8 uM incubated for 18 hrs in presence of doxycycline by broth microdilution assay; assay type: functional; conditions: dose microM <=9.8
[14] = system: Escherichia coli; assay: Potentiation of doxycycline-induced antibacterial activity against Escherichia coli ATCC 25922 assessed as fold change in doxycycline MIC at 9.8 uM incubated for 18 hrs in presence of doxycycline by broth microdilution assay relative to control; assay type: functional
[15] = system: Pseudomonas aeruginosa; assay: Antibacterial activity against Pseudomonas aeruginosa 91433 assessed as potentiation of doxycycline-induced antibacterial activity by measuring doxycycline MIC at 9.8 uM incubated for 18 hrs in presence of doxycycline by broth microdilution assay (reference value: 32 ug/ml); assay type: functional
[16] = system: Pseudomonas aeruginosa; assay: Antibacterial activity against Pseudomonas aeruginosa 114228 assessed as fractional inhibitory concentration incubated for 18 hrs in presence of rifampicin by broth microdilution assay; assay type: functional
[17] = system: Pseudomonas aeruginosa; assay: Antibacterial activity against Pseudomonas aeruginosa 260-97103 infected in Galleria mellonella larvae assessed as mortality of larvae at 100 mg/kg administered at 3 hrs post-infection and measured every 6 hrs for 36 hrs; assay type: functional
[18] = system: Pseudomonas aeruginosa; assay: Antibacterial activity against Pseudomonas aeruginosa 260-97103 infected in Galleria mellonella larvae assessed as survival of larvae at 75 mg/kg treated at 3 hrs post-infection in presence of chloramphenicol and measured after 24 hrs relative to control; assay type: functional
[19] = system: Enterobacter cloacae; assay: Potentiation of chloramphenicol-induced antibacterial activity against Enterobacter cloacae ATCC 117029 assessed as fold change in chloramphenicol MIC at 9.8 uM incubated for 18 hrs in presence of chloramphenicol by broth microdilution assay relative to control; assay type: functional
[20] = system: Pseudomonas aeruginosa; assay: Antibacterial activity against wild type Pseudomonas aeruginosa PAO1 assessed as reduction in bacterial growth by measuring chloramphenicol MIC at 0.25 ug/ml incubated for 18 hrs in presence of chloramphenicol by broth microdilution assay (reference value: 32 ug/ml); assay type: functional; conditions: dose 0.25 µg/ml
[21] = system: Pseudomonas aeruginosa; assay: Potentiation of chloramphenicol-induced antibacterial activity against Pseudomonas aeruginosa 101243 assessed as fold change in chloramphenicol MIC at 7.6 uM incubated for 18 hrs in presence of chloramphenicol by broth microdilution assay relative to control; assay type: functional
[22] = system: Pseudomonas aeruginosa; assay: Antibacterial activity against Pseudomonas aeruginosa 91433 assessed as potentiation of doxycycline-induced antibacterial activity by measuring doxycycline MIC at 7.6 uM incubated for 18 hrs in presence of doxycycline by broth microdilution assay (reference value: 32 ug/ml); assay type: functional
[23] = system: Pseudomonas aeruginosa; assay: Antibacterial activity against Pseudomonas aeruginosa 114228 assessed as potentiation of doxycycline-induced antibacterial activity by measuring doxycycline MIC at 7.6 uM incubated for 18 hrs in presence of doxycycline by broth microdilution assay (reference value: 32 ug/ml); assay type: functional
[24] = system: Escherichia coli; assay: Potentiation of doxycycline-induced antibacterial activity against Escherichia coli ATCC 25922 assessed as fold change in doxycycline MIC at 7.6 uM incubated for 18 hrs in presence of doxycycline by broth microdilution assay relative to control; assay type: functional
[25] = system: Pseudomonas aeruginosa; assay: Potentiation of doxycycline-induced antibacterial activity against Pseudomonas aeruginosa 114228 assessed as fold change in doxycycline MIC at 7.6 uM incubated for 18 hrs in presence of doxycycline by broth microdilution assay relative to control; assay type: functional
[26] = system: Pseudomonas aeruginosa; assay: Antibacterial activity against Pseudomonas aeruginosa 114228 assessed as potentiation of chloramphenicol-induced antibacterial activity by measuring chloramphenicol MIC at 7.6 uM incubated for 18 hrs in presence of chloramphenicol by broth microdilution assay (reference value: 64 ug/ml); assay type: functional
[27] = system: Pseudomonas aeruginosa; assay: Antibacterial activity against Pseudomonas aeruginosa 259-96918 assessed as potentiation of doxycycline-induced antibacterial activity by measuring doxycycline MIC at 7.6 uM incubated for 18 hrs in presence of doxycycline by broth microdilution assay (reference value: 32 ug/ml); assay type: functional
[28] = system: Pseudomonas aeruginosa; assay: Antibacterial activity against Pseudomonas aeruginosa 259-96918 assessed as potentiation of chloramphenicol-induced antibacterial activity by measuring chloramphenicol MIC at 7.6 uM incubated for 18 hrs in presence of chloramphenicol by broth microdilution assay (reference value: 1024 ug/ml); assay type: functional
[29] = system: Pseudomonas aeruginosa; assay: Potentiation of doxycycline-induced antibacterial activity against Pseudomonas aeruginosa 101885 assessed as fold change in doxycycline MIC at 7.6 uM incubated for 18 hrs in presence of doxycycline by broth microdilution assay relative to control; assay type: functional

CO[C@H]1/C=C/O[C@@]2(C)Oc3c(C)c(O)c4c(O)c(c(/C=N/N5CCN(Cc6cn(CCCCCCO[C@@H]7[C@@H](O[C@H]8O[C@H](CO)[C@@H](O)[C@H](N)[C@H]8O)[C@H](N)C[C@H](N)[C@H]7O[C@H]7O[C@H](CN)[C@@H](O)C[C@H]7N)nn6)CC5)c(O)c4c3C2=O)NC(=O)/C(C)=C\C=C\[C@H](C)[C@H](O)[C@@H](C)[C@@H](O)[C@@H](C)[C@H](OC(C)=O)[C@@H]1C.Cl.Cl.Cl.Cl.Cl
FIC [1]: <0.125 | FIC [2]: <0.125 | survival at 100 mg/kg [3]: 45% | MIC [4]: 8 µg/mL | FIC [5]: <0.031 | MIC [6]: 2 µg/mL | fractional inhibitory concentration index (FICI) [7]: <0.53 | MIC [8]: 1 µg/mL | fractional inhibitory concentration index (FICI) [9]: 0.13 | fold change (FC) [10]: 8 | fractional inhibitory concentration index (FICI) [11]: <0.16 | Activity [12]: Active | fold change (FC) [13]: 32 | fold change (FC) [14]: 0 | MIC [15]: 4 µg/mL | FIC [16]: <0.031 | mortality at 100 mg/kg [17]: 100% | survival at 75 mg/kg [18]: 10% | fold change (FC) [19]: 0

NC[C@H]1O[C@H](O[C@H]2[C@H](O)[C@@H](O[C@H]3O[C@H](CO)[C@@H](O)[C@H](N)[C@H]3O)[C@H](N)C[C@@H]2N)[C@H](N)C[C@@H]1O [TOBRAMYCIN]
MIC [20]: 32 µg/mL

CO[C@H]1/C=C/O[C@@]2(C)Oc3c(C)c(O)c4c(O)c(c(/C=N/N5CCN(Cc6cn(CCCCCCCCCCCCO[C@@H]7[C@@H](O[C@H]8O[C@H](CO)[C@@H](O)[C@H](N)[C@H]8O)[C@H](N)C[C@H](N)[C@H]7O[C@H]7O[C@H](CN)[C@@H](O)C[C@H]7N)nn6)CC5)c(O)c4c3C2=O)NC(=O)/C(C)=C\C=C\[C@H](C)[C@H](O)[C@@H](C)[C@@H](O)[C@@H](C)[C@H](OC(C)=O)[C@@H]1C.O=C(O)C(F)(F)F.O=C(O)C(F)(F)F.O=C(O)C(F)(F)F.O=C(O)C(F)(F)F.O=C(O)C(F)(F)F
fold change (FC) [21]: 4 | MIC [22]: 0.25 µg/mL | MIC [23]: 2 µg/mL | fold change (FC) [24]: 0 | fold change (FC) [25]: 4 | MIC [26]: 8 µg/mL | MIC [27]: 0.25 µg/mL | MIC [28]: 512 µg/mL | fold change (FC) [29]: 4
